Reference: patent publication US20260146025A1, “CRYSTALLINE POLYMORPHS OF MITAPIVAT AND MITAPIVAT HEMISULFATE” (TIANISH LABORATORIES PRIVATE LIMITED, priority 2022, published 2026)
Counter-ions that a name gives are not always drawn.

Test: Physical stability of polymorphs on storage, tested by PXRD
Assay type: physicochemical
Details: for physical stability (PXRD analysis): up to three months
Protocol: The powder X-ray diffraction patterns of said polymorphs of the invention were measured on a PANalytical X′Pert PRO powder diffractometer equipped with a goniometer of θ/θ configuration and X'Celerator detector. The Cu-anode X-ray tube was operated at 40 kV and 30 mA. The experiments were conducted over the 2θ range of 2.0°-50.0°, 0.0330 step size and 50 seconds step time.
In yet another embodiment, the physical stability of crystalline mitapivat hemi sulfate Form VII and crystalline mitapivat hemi sulfate Form XI were determined by storing the samples at 40° C./75% relative humidity (RH) and at 25° C./60% RH conditions for three months as shown in Table 1.

O=C(c1ccc(NS(=O)(=O)c2cccc3cccnc23)cc1)N1CCN(CC2CC2)CC1 [Mitapivat hemi sulfate Form VII, 8-quinolinesulfonamide, N-[4-[[4(cyclopropylmethyl)-1-piperazinyl]carbonyl]phenyl]-, sulfate]
physical stability (PXRD analysis) (25° C./60% relative humidity (RH)): physically stable | physical stability (PXRD analysis) (40° C./75% relative humidity (RH)): physically stable | PXRD (physical stability) (stored at 25° C./60% RH, 1 month): Stable | PXRD (physical stability) (stored at 25° C./60% RH, 2 months): Stable | PXRD (physical stability) (stored at 25° C./60% RH, 3 months): Stable | PXRD (physical stability) (stored at 40° C./75% RH, 1 month): Stable | PXRD (physical stability) (stored at 40° C./75% RH, 3 months): Stable

O=C(c1ccc(NS(=O)(=O)c2cccc3cccnc23)cc1)N1CCN(CC2CC2)CC1 [Mitapivat hemi sulfate Form XI, 8-quinolinesulfonamide, N-[4-[[4(cyclopropylmethyl)-1-piperazinyl]carbonyl]phenyl]-, sulfate]
PXRD (physical stability) (stored at 40° C./75% RH, 2 months): Stable
